Data as given in patent publication US20050079549A1, “Methods for modeling GPCRs and for producing ligand blocking and receptor activating antibodies for same” (priority 2003, published 2005).

Key:
[1] = molecular target: T1, human S1P4 (formerly Edg 6) (Homo sapiens, UniProt O95977); assay: phospho ERK 1/2 ELISA in CHO cells stably transfected with human S1P4; assay type: cell-based; conditions: CHO EDG6 (S1P4); 10 nM S1P, no antibody
T1 sequence (O95977 1-384): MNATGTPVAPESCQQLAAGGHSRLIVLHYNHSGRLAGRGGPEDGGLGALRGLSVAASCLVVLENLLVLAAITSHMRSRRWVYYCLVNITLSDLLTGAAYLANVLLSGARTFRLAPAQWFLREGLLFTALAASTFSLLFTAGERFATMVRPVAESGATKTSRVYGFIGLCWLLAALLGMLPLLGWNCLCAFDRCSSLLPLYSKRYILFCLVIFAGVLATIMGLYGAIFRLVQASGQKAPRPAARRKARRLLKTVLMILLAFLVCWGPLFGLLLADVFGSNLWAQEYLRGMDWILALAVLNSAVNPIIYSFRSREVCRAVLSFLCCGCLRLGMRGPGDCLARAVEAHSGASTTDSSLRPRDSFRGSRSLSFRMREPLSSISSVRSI
Procedure: (§1) For example, CHO cells that are stably transfected with human S1P4 (formerly Edg 6) a GPCR (g protein coupled receptor) for sphingosine 1-phosphate (S1P) a lipid growth factor mediator or mock transfected CHO control cells are washed in DMEM and starved of serum for 4 hours at 37° C.
(§2) One million cells in 1 ml serum free DMEM were challenged with monoclonal antibodies that had been raised against a S1P4 cyclic molecular mimic loop 1B structure described herein for 10 minutes at room temperature. Monoclonal antibody supernatants containing DMEM with 10% fetal bovine serum antibiotics, L glutamine media supplements, were pretreated with cell culture tested Norite™ (Sigma Chemical Company) for 24 hours at 4 C to remove endogenous S1P from the media prior to the addition of supernatant to cells. Following antibody addition and incubation, 10 nM S1P was added for 15 minutes at 37 C. Controls of media alone, media and Norite™, media and 10 nM S1P, media-Norite™ and SIP, and media PMA were included. [drawing]

[2] = tested on: mock transfected CHO control cells; assay: phospho ERK 1/2 ELISA in mock transfected CHO control cells; assay type: cell-based; conditions: 10 nM S1P, no antibody
Procedure: as §1, §2

[3] = NMR spectra of mixtures of loop peptide and O-phosphoethanolamine; assay type: binding; conditions: mixture with O-phosphoethanolamine
Description: NMR is used to characterize the interactions between the extracellular loops and O-phosphoethanolamine, a mimic of the S1P4 endogenous ligand to determine if potential for ligand binding exists.
The most important NMR result for the characterization of the interaction between the constrained peptides and O-phosphoethanolamine are heteronuclear 2D-NOE that allow derivation of the distances between the cationic nitrogens of R121 and R287 and the phosphate phosphorous atom of O-phosphoethanolamine. Additional information is derived from chemical shift changes of the protons in residues of the loop peptides upon addition of the phosphoethanolamine as well as chemical shift changes of protons on the phosphoethanolamine. Such chemical shift changes are indicative of changes in the electronic environment of these protons and are used in high-throughput NMR assays of ligand binding. (Shuker, S. B., Hajduk, P. J., Meadows, R. P. & Fesik, S. W. Discovering High-Affinity Ligands for Proteins: SAR by NMR. Science 274, 1531-1534 (1996)).

Compound | phospho ERK 1/2 [1] [ng/mL] | phospho ERK 1/2 [2] [ng/mL] | ligand binding by NMR [3]
CCCCCCCCCCCCC/C=C/[C@@H](O)[C@@H](N)COP(=O)(O)O [Clone S1P, sphingosine 1-phosphate] | 1.280 | 0.000 | –
FLVWGPLFGLLLADVFGSNLWAQEYLRGMDWILAAVL [Loop 3, conformationally constrained peptide mimicking S1P4 extracellular loop 3] | – | – | reflect ligand binding
TGAYLANVLLSGARTFRLAPAQWFLREGCLFT [Loop 1 B, conformationally constrained (disulfide) peptide mimicking S1P4 extracellular loop 1] | – | – | reflect ligand binding
